We go through 40 compounds from US12421212B2, “Substituted benzenecarboxamides as IL-17A modulators” (DiCE Alpha, Inc., priority 2019, dated 2025).

One experiment addresses T1, IL-17A/A (Homo sapiens, UniProt Q16552).
T1 construct: purchased Genscript Z03228
T1 sequence (Q16552 24-155): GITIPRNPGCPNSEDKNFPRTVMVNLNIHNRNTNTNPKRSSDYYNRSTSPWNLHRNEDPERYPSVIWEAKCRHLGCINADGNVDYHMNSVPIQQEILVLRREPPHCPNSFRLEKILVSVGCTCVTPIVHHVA
Kind of experiment: IL-17A/A HEK-Blue Cell Assay. Format: cell-based. The conditions noted are these: HEK-Blue IL-17A reporter cell line, SEAP readout at A630, 20 hours incubation with IL-17A/A; top concentration 10 uM, 1 uM or 0.3 uM.
Take `CCn1nccc1C(=O)N[C@H](C(=O)Nc1ccc([C@H](C)[C@@H](NC(=O)NC2CC2)C(=O)N2CCN(C)CC2)cc1F)[C@H]1CC[C@H](C)CC1` [Compound 404]: the “IL-17A/A inhibition (pIC50)” value is recorded as “B (8>B≥7 as B)”.

On to `CCC(=O)N[C@H](Cc1ccc(NC(=O)[C@@H](NC(=O)c2cnc(CNS(C)(=O)=O)n2C)C2CCCCC2)c(F)c1)C(=O)N1CCN(C)CC1` [Compound 716], for which the “IL-17A/A inhibition (pIC50)” value is “X2b (compounds were evaluated up to 1 uM and inhibited activity at 1 uM by less than 20%)”. Regarding `CCC(=O)N[C@@H](C(=O)N1CCN(C)CC1)[C@@H](C)c1ccc(NC(=O)[C@@H](NC(=O)C(F)(F)C2CCN(C)CC2)C2CCCCC2)c(F)c1` [Compound 734], the “IL-17A/A inhibition (pIC50)” value was “X2a (compounds were evaluated up to 1 uM and did not inhibit activity by >80%, however they showed some activity at 1 uM (less than 80% and more than 20%))”. In the case of `CCC(=O)N[C@H](Cc1ccc(NC(=O)[C@@H](NC(=O)c2cnc(CNC(C)=O)n2C)C2CCCCC2)c(F)c1)C(=O)N1CCN(C)CC1` [Compound 717], the “IL-17A/A inhibition (pIC50)” value is “X2b (compounds were evaluated up to 1 uM and inhibited activity at 1 uM by less than 20%)”. As for `CCC(=O)N[C@H](Cc1ccc(NC(=O)[C@@H](NC(=O)c2c3c(nn2CC)CCC3)C2CCCCC2)c(F)c1)C(=O)N1CCN(C)CC1` [Compound 774], the “IL-17A/A inhibition (pIC50)” value was “X1b (compounds were evaluated up to 10 uM and inhibited activity at 10 uM by less than 20%)”.

As to `CCC(=O)N[C@H](Cc1ccc(NC(=O)[C@@H](NC(=O)c2cnn3c2CCC3)C2CCCCC2)c(F)c1)C(=O)N1CCN(C)CC1` [Compound 703], the “IL-17A/A inhibition (pIC50)” value was “X2a (compounds were evaluated up to 1 uM and did not inhibit activity by >80%, however they showed some activity at 1 uM (less than 80% and more than 20%))”.

Regarding `CCC(=O)N[C@@H](C(=O)N1CCN(C)CC1)[C@@H](C)c1ccc(NC(=O)C(NC(=O)c2nonc2CC)C(CC)c2ccc(Cl)cc2)c(F)c1` (stereo partly shown) [Compound 567], the “IL-17A/A inhibition (pIC50)” value was “X2b (compounds were evaluated up to 1 uM and inhibited activity at 1 uM by less than 20%)”. On the same count and under the same terms, next, `CCC(=O)N[C@@H](C(=O)N1CCN(C)CC1)[C@@H](C)c1ccc(NC(=O)C(NC(=O)c2ccnn2CC)C2CCc3cc(F)ccc32)c(F)c1` (single isomer, unassigned) [Compound 571]: “X2a (compounds were evaluated up to 1 uM and did not inhibit activity by >80%, however they showed some activity at 1 uM (less than 80% and more than 20%))”; `CCC(=O)N[C@@H](C(=O)N1CCN(C)CC1)[C@@H](C)c1ccc(NC(=O)[C@@H](NC(=O)[C@@H]2CCCN2C)C2CCCCC2)c(F)c1` [Compound 758]: “X2b (compounds were evaluated up to 1 uM and inhibited activity at 1 uM by less than 20%)”. Take `CCC(=O)N[C@@H](C(=O)N1CCN(C)CC1)[C@@H](C)c1ccc(NC(=O)C(NC(=O)c2ccnn2CC)C(C)c2ccccc2Cl)c(F)c1` (stereo partly shown) [Compound 519]: the “IL-17A/A inhibition (pIC50)” value was “X3a (compounds were evaluated up to 0.3 uM and did not inhibit activity by >80%, however they showed some activity at 0.3 uM (less than 80% and more than 20%))”.

Consider `CCC(=O)N[C@@H](C(=O)N1CCN(C)CC1)[C@@H](C)c1ccc(NC(=O)[C@@H](NC(=O)c2ccnn2-c2ccccc2)C2CCCCC2)c(F)c1` [Compound 738], for which the “IL-17A/A inhibition (pIC50)” value is “X2a (compounds were evaluated up to 1 uM and did not inhibit activity by >80%, however they showed some activity at 1 uM (less than 80% and more than 20%))”.

The experiment is the same for the next values; noted with them: HEK-Blue IL-17A reporter cell line, SEAP readout at A630, 20 hours incubation with IL-17A/A; top concentration 10 uM, 1 uM or 0.3 uM; read-out: IL-17A/A inhibition (pIC50) (converted).
Consider `CCn1nccc1C(=O)N[C@H](C(=O)Nc1ccc([C@H](C)[C@@H](NC(=O)OC)C(=O)N2CCN(C)CC2)cc1F)[C@H]1CC[C@H](C)CC1` [Compound 483], for which the IC50 is 10 to 100 nM.

As for `CCC(=O)N[C@H](Cc1ccc(NC(=O)[C@@H](NC(=O)c2ccnn2CC)C2CCCCCC2)c(F)c1)C(=O)N1CCN(C)CC1` [Compound 235], the IC50 was 10 to 100 nM. Still for that read-out and setting: for `CCn1nccc1C(=O)N[C@H](C(=O)Nc1ccc([C@H](C)[C@@H](NC(=O)NC2CC2)C(=O)N2CCN(C)CC2)cc1F)C1CCCCC1` [Compound 314] the value was 10 to 100 nM; for `CCn1nccc1C(=O)N[C@H](C(=O)Nc1ccc([C@H](C)[C@@H](NC(=O)c2cncs2)C(=O)N2CCN(C)CC2)cc1F)C1CCCCC1` [Compound 303], 10 to 100 nM. The same measure, in the same setting: for `CCC(=O)N[C@@H](C(=O)N1CCN(C)CC1)[C@@H](C)c1ccc(NC(=O)C(NC(=O)c2nonc2CC)C(CC)c2ccc(Cl)cc2)c(F)c1` (single isomer, unassigned) [Compound 565] the value was < 10 nM; for `CCC(=O)N[C@@H](C(=O)N1CCN[C@H](C)C1)[C@@H](C)c1ccc(NC(=O)[C@@H](NC(=O)c2nonc2CC)[C@H]2CC[C@H](C)CC2)c(F)c1` [Compound 454], 100 to 10000 nM.

With `CCn1nnnc1C(=O)N[C@H](C(=O)Nc1ccc([C@H](C)[C@@H](NC(=O)C(C)(F)F)C(=O)N2CCN(C)[C@H](C)C2)cc1F)[C@H]1CC[C@H](C)CC1` [Compound 605], the IC50 was 10 to 100 nM. `CCC(=O)N[C@@H](C(=O)N1CCC(C)CC1)[C@@H](C)c1ccc(NC(=O)[C@@H](NC(=O)c2ccnn2C2CCCC2)[C@H]2CC[C@H](C)CC2)c(F)c1` [Compound 375]: the IC50 is 10 to 100 nM.

`CCn1nccc1C(=O)N[C@H](C(=O)Nc1ccc([C@H](C)[C@@H](NC(=O)C2(F)CC2)C(=O)N2CCN(C)CC2)cc1F)[C@H]1CC[C@H](C)CC1` [Compound 406]: the IC50 is 10 to 100 nM. On the same count and under the same terms, for `CCC(=O)N[C@@H](C(=O)N1CCN(Cc2ccccn2)CC1)[C@@H](C)c1ccc(NC(=O)[C@@H](NC(=O)c2ccnn2CC)[C@H]2CC[C@H](C)CC2)c(F)c1` [Compound 341] the value was 10 to 100 nM; for `CCn1nccc1C(=O)N[C@H](C(=O)Nc1ccc([C@H](C)[C@@H](NC(=O)C2CC2)C(=O)N2CCN(C)CC2)cc1F)C1CCCCCC1` [Compound 535], < 10 nM.

`CCC(=O)N[C@@H](C(=O)N1CCN(CCO)CC1)[C@@H](C)c1ccc(NC(=O)[C@@H](NC(=O)c2nonc2CC)[C@H]2CC[C@H](C)CC2)c(F)c1` [Compound 445]: the IC50 was 10 to 100 nM. On to `CCC(=O)N[C@@H](C(=O)N1CCN(C)CC1)[C@@H](C)c1ccc(NC(=O)[C@@H](NC(=O)c2ccnn2CC)C2CCCCCC2)c(F)c1` [Compound 228], for which the IC50 was < 10 nM. For `CCc1nonc1C(=O)N[C@H](C(=O)Nc1ccc([C@H](C)[C@@H](NC(=O)c2ccnn2C)C(=O)N2CCN(C)CC2)cc1F)[C@H]1CC[C@H](C)CC1` [Compound 490], the IC50 was 10 to 100 nM. Take `CCC(=O)N[C@H](Cc1ccc(NC(=O)[C@@H](NC(=O)c2ccnn2CC(F)F)C2CCCCC2)c(F)c1)C(=O)N1CCN(C)CC1` [Compound 669]: the IC50 was 100 to 10000 nM.

Turning to `CCC(=O)N[C@H](Cc1ccc(NC(=O)[C@@H](NC(=O)c2conc2CNC(C)=O)C2CCCCC2)c(F)c1)C(=O)N1CCN(C)CC1` [Compound 764], the IC50 is 100 to 10000 nM. For the compound `CNC(=O)N[C@@H](C(=O)N1CCN(C)CC1)[C@@H](C)c1ccc(NC(=O)[C@@H](NC(=O)C(F)(F)c2cccc(C#N)c2)C2CCCCC2)c(F)c1` [Compound 317], the IC50 was 10 to 100 nM. Consider `CCC(=O)N[C@@H](C(=O)N1CCN(C)CC1)[C@@H](C)c1ccc(NC(=O)[C@@H](NC(=O)C(F)(F)c2cccc(C#N)c2)C2CCCCCC2)c(F)c1` [Compound 260], for which the IC50 is < 10 nM. `COc1cncc(C(F)(F)C(=O)N[C@H](C(=O)Nc2ccc(C[C@@H](NC(=O)c3cnns3)C(=O)N3CCN(C)CC3)cc2F)C2CCCCC2)c1` [Compound 324]: the IC50 was 10 to 100 nM.

With `CCC(=O)N[C@@H](C(=O)N1CCN(C)CC1)[C@@H](C)c1ccc(NC(=O)C(NC(=O)c2ccnn2CC)[C@@H](C)C2CCCCC2)c(F)c1` (stereo partly shown) [Compound 390], the IC50 was < 10 nM. As for `CCC(=O)N[C@@H](C(=O)N1CCC(C)(O)CC1)[C@@H](C)c1ccc(NC(=O)[C@@H](NC(=O)c2ccnn2CC)C2CCCCCC2)c(F)c1` [Compound 350], the IC50 is < 10 nM.

In the case of `CCC(=O)N[C@@H](C(=O)N1CCN(C)CC1)[C@@H](C)c1ccc(NC(=O)C(NC(=O)c2nonc2CC)C(CC)c2ccc(F)cc2)c(F)c1` (single isomer, unassigned) [Compound 557], the IC50 is 100 to 10000 nM.

In the case of `CCCn1nccc1C(=O)N[C@H](C(=O)Nc1ccc(C[C@@H](NC(=O)CC)C(=O)N2CCN(C)CC2)cc1F)C1CCCCC1` [Compound 237], the IC50 was 10 to 100 nM. As to `CCc1nonc1C(=O)N[C@H](C(=O)Nc1ccc([C@H](C)[C@@H](NC(=O)N(C)C2CC2)C(=O)N2CCN(C)CC2)cc1F)[C@H]1CC[C@H](C)CC1` [Compound 513], the IC50 was < 10 nM. Consider `CCC(=O)N[C@H](Cc1ccc(NC(=O)[C@@H](NC(=O)C(F)(F)c2ccc(OC)nc2)[C@H]2CC[C@H](C)CC2)c(F)c1)C(=O)N1CCN(C)CC1` [Compound 216], for which the IC50 is 100 to 10000 nM. As to `CCC(=O)N[C@H](Cc1ccc(NC(=O)[C@@H](NC(=O)C(F)(F)c2ccc(C)cc2)C2CCCCC2)c(F)c1)C(=O)N1CCN(C)CC1` [Compound 210], the IC50 is 100 to 10000 nM. Take `CCC(=O)N[C@@H](C(=O)N1CCC(C)(O)CC1)[C@@H](C)c1ccc(NC(=O)[C@@H](NC(=O)c2ccnn2CC)[C@H]2CC[C@H](C)CC2)c(F)c1` [Compound 343]: the IC50 is 10 to 100 nM. On to `CCc1nonc1C(=O)N[C@H](C(=O)Nc1ccc([C@H](C)[C@@H](NC(=O)N(C)C2CC2)C(=O)N2CCN(C)[C@H](C)C2)cc1F)[C@H]1CC[C@H](C)CC1` [Compound 508], for which the IC50 was < 10 nM.

Take `CCn1nccc1C(=O)N[C@H](C(=O)Nc1ccc([C@H](C)[C@@H](NC(=O)c2ccnn2C2CCN(C)CC2)C(=O)N2CCN(C)CC2)cc1F)[C@H]1CC[C@H](C)CC1` [Compound 486]: the IC50 is 10 to 100 nM.
